Measured values taken from patent publication US20090061515A1, “Methods of inhibiting or suppressing cellular proliferation” (priority 2007, published 2009).

Columns and labels:
Type in all cases: cell-based
[1] = test system: human umbilical vein endothelial cells (HUVEC); test: CyQuant cell proliferation after 48 hour exposure, HUVEC (Example 6); settings: for cell proliferation: 48 hour exposure
Procedure: Evaluation of the effects of 5,6-dihydroxy-hexan-2-one on human umbilical vein endothelial cells (HUVEC) and Glioblastoma/Astrocytoma cells U87 cellular proliferation and migration during 120 hours following 48 hour exposure to 5,6-dihydroxy-hexan-2-one at concentration of 10 mg/ml, 1 mg/ml, 100 micrograms/ml. Controls were cells not exposed to the agent.
In order to further explore the effects of this compound, experiments to evaluate the dose-effect response on the antiproliferative effect and on cell migration were conducted on two cell lines, human umbilical vein endothelial cells (HUVEC) and Glioblastoma/Astrocytoma cells (U87), over 120 hours after 48 hours of exposure to the compound.
A cell proliferation assay available under the trade designation CyQuant from Invitrogen Corporation (Carlsbad, Calif.) determines the density of cells in culture by using a green fluorescent dye which fluoresces when bound to cellular nucleic acids.

[2] = test system: coronary artery smooth muscle cells (CASMC); test: Cell migration into scraped monolayer, CASMC (Example 5); settings: 1 and 10 mg/ml, 48 hours exposure then 72 hours growth
Procedure: In a similar manner, cell migration was explored in vitro by scraping the cell monolayer and culturing the cells in the presence of 5,6-dihydroxy-hexan-2-one at concentrations of 1 mg/ml and 10 mg/ml. FIGS. 20(a)-(l) are pictures that visually display the migration of coronary artery smooth muscle cells (CASMC) (FIGS. 20(a)-(f)) and normal human dermal fibroblast (NHDF) cells (FIGS. 20(g)-(l)) exposed to various concentrations of 5,6-dihydroxy-hexan-2-one after 48 hours exposure, then cultured an additional 72 hours after removal of the 5,6-dihydroxy-hexan-2-one as described in Example 5. Specifically, FIGS. 20(a) and (b) represent the CASMC control at time zero and 72 hours, respectively; FIGS. 20(c) and (d) represent CASMC (10 mg/ml) at time zero and 72 hours, respectively; and FIGS. 20(e) and (f) represent CASMC (1 mg/ml) at time zero and 72 hours, respectively. FIGS. 20(g) and (h) represent the NHDF cell control at time zero and 72 hours, respectively; FIGS. 20(i) and (j) represent NHDF cells (10 mg/ml) at time zero and 72 hours, respectively; and FIGS. 20(k) and (l) represent NHDF cells (1 mg/ml) at time zero and 72 hours, respectively.
Cell migration judged by the ability of cells to repopulate the scraped “acellular” space over time indicated no microscopically identifiable effect by the agent at the concentrations tested. […]

[3] = test system: Normal Human Dermal Fibroblast (NHDF) cells; test: CytoTox 96 LDH release cytotoxicity assay (Example 3)
Procedure: The assay used was a non-radioactive cytotoxicity assay available under the trade designation CytoTox 96 from Promega Corporation (Madison, Wis.), which was designed to determine the cytotoxicity of a substance by quantitatively measuring the presence of lactate dehydrogenase (LDH) in cell culture supernatant. The enzymatic assay utilizes the LDH released in the supernatant in the conversion of a tetrazolium salt substrate into a red formazan product. This resulting product is measured using a standard 96 well plate reader where the absorbance recorded at 490 nanometers is directly proportional to the number of lysed cells. The Normal Human Dermal Fibroblasts were available from Clonetics Corporation (San Diego, Calif.).
The 5,6-dihydroxy-hexan-2-one (1.2 grams) was dissolved in 12 ml of phosphate buffered saline and was filter sterilized through a 0.22 micrometer syringe filter prior to use. The 5,6-dihydroxy-hexan-2-one was further diluted to 10^−1, 10^−2, 10^−3, 10^−4, 10^−5, and 10^−6 using serial dilutions for the evaluation.
NHDF were seeded at 45,000 cells/well in 24 well plate(s). Cells were grown for 72 hours, 48 hours of which was done in the presence of the test chemicals. 24 hours after seeding, 5,6-dihydroxy-hexan-2-one was added to the cell culture plates (2 ml/well). […] Samples were analyzed on the above-described assay as provided in the instructions for use of the assay.

## CC(=O)CCC(O)CO (stereo not drawn) [5,6-dihydroxy-hexan-2-one]
[1]; 10 mg/ml
  cell proliferation: antiproliferative effects
[1]; 10 mg/ml, after 48 hour exposure
  time after withdrawal at which inhibitory effect was still observed: ≥ 120 h
[1]; lowest concentration evaluated (100 micrograms/ml)
  cell proliferation: no antiproliferative effects
[2]
  cell migration: not affected
[3]; 10^-1 concentration
  cytotoxicity (LDH release), in words: no significant cytotoxicity
[3]; various concentrations, 48 hours
  cytotoxicity (LDH release), in words: no increase in cytotoxicity
